Source: US20250281507A1, “METHODS OF TREATING NEPHROTIC SYNDROME” (The Research Institute at Nationwide Children's Hospital, priority 2021, published 2025)
Where “and” joins values, the source holds several entries; their conditions need not be identical. Equal entries are not always repeated.

Assays:
children with NS [1] = assay: Hospitalizations, edema, hypoglycemia and side effects on pioglitazone; type: in vivo, human
Source text: In the following clinical studies, the efficacy and safety of adding pioglitazone to reduce proteinuria in children with NS was examined. All children with NS identified worldwide to have been treated with pioglitazone were included, with no patients excluded. Each patient had pioglitazone added to their other NS medications at the discretion of their treating pediatric nephrologist. All patient records were reviewed in a de-identified manner, with prior ethics committee approval at each institution. Data were analyzed based on defined time periods before and after the addition of pioglitazone. Patients were defined as having responded to pioglitazone (i.e., Responders) if their urine protein to creatinine ratio (UPCR, mg/mg) decreased from the period 0-1 month pre-pioglitazone to the period 0-1 month post-pioglitazone. Glomerular filtration rate estimation (eGFR) in patients <18 years was calculated using the revised Schwartz equation. In patients >18 years, eGFR was calculated as the mean of the revised Schwartz and CKD-EPI creatinine equations. Quantitative data, such as patient age, duration of NS, pioglitazone dosage, and outcomes of UPCR, TIS, and serum albumin, were summarized as means (standard errors of mean), while categorical data such as renal survival status were summarized as frequency (percent). Due to a small sample size, Responders and Non-responders were compared using Wilcoxon Rank Sum tests on quantitative variables and Fisher's exact tests on categorical variables. For both Responders and Non-responders, pre-pioglitazone to post-pioglitazone initiation changes in UPCR, TIS, and serum albumin levels were analyzed using Wilcoxon Signed Rank tests. Numbers of hospitalizations pre-pioglitazone and post-pioglitazone initiation were analyzed and compared using Poisson distributions. Statistical significance was assessed at both the 0.05 and 0.10 levels. All analyses were conducted using SPSS software ver. 26 (IBM, Armonk, NY, USA).

children with NS [2] = assay: Total Immunosuppression Score (TIS) before and after addition of pioglitazone; type: in vivo, human; design: % TIS reduction (0-1 mo) / % TIS reduction (5-7 mo) / % TIS reduction (0-1 mo), Mean (SEM) / % TIS reduction (5-7 mo), Mean (SEM): concentration or dose not given beside the values
Experimental: The reduction in overall immunosuppression can be quantified by comparing the “Total Immunosuppression Score” (TIS) prior to and after the addition of a TZD to the drug regimen (see FIG. 3 herein). The TIS is based on a combination of the number of immunosuppressive drugs being administered and the dose at which each drug is administered. The score for each drug is on a scale of 0 to 4, where: 0=no drug administered; 1=drug administered up to less than 25% of the standardized full dose; 2=drug administered between 25% and less than 50% of the standardized full dose; 3=drug administered between 50% and less than 75% of the standardized full dose; 4=drug administered between 75% and 100% of the standardized full dose. As an example, if five different immunosuppressive medicaments are co-administered to a subject each at their standardized full dose, the TIS=20.
For each patient, a Total Immunosuppression Score (TIS) (see Table 3) was calculated to quantitate overall immunosuppression. For each class of immunosuppressive drug administered during a given time period, a score of 0-4 was assigned based on the percentage of a full dose for each patient's body size (0=0%; 1=<25%; 2=≥25-<50%; 3=≥50-<75%: 4=≥75%).
Quantitative data, such as patient age, duration of NS, pioglitazone dosage, and outcomes of UPCR, TIS, and serum albumin, were summarized as means (standard errors of mean), while categorical data such as renal survival status were summarized as frequency (percent). Due to a small sample size, Responders and Non-responders were compared using Wilcoxon Rank Sum tests on quantitative variables and Fisher's exact tests on categorical variables. For both Responders and Non-responders, pre-pioglitazone to post-pioglitazone initiation changes in UPCR, TIS, and serum albumin levels were analyzed using Wilcoxon Signed Rank tests. Numbers of hospitalizations pre-pioglitazone and post-pioglitazone initiation were analyzed and compared using Poisson distributions. Statistical significance was assessed at both the 0.05 and 0.10 levels. All analyses were conducted using SPSS software ver. 26 (IBM, Armonk, NY, USA).

[3] = Patient 1 (Responder), pre-PIO 13
[4] = Patient 1 (Responder), vs 0-1 mo pre-PIO
[5] = Patient 2 (Responder), pre-PIO 12
[6] = Patient 2 (Responder), vs 0-1 mo pre-PIO
[7] = Patient 3 (Responder), pre-PIO 0
[8] = Patient 3 (Responder), vs 0-1 mo pre-PIO (TIS 0)
[9] = Patient 5 (Non-responder), pre-PIO 4
[10] = Patient 5 (Non-responder), vs 0-1 mo pre-PIO
[11] = Patient 6 (Responder), pre-PIO 2
[12] = Patient 7 (Non-responder), pre-PIO 3
[13] = Patient 7 (Non-responder), vs 0-1 mo pre-PIO
[14] = Patient 8 (Responder), pre-PIO 4
[15] = Patient 8 (Responder), vs 0-1 mo pre-PIO
[16] = mean of 5 Responders, pre-PIO 6.20

Compound: CCc1ccc(CCOc2ccc(CC3SC(=O)NC3=O)cc2)nc1 (stereo not drawn) [pioglitazone]
- required hospitalizations (children with NS [1]; 5 Responders, post-pioglitazone, 11 pre-pioglitazone): none
- side effects attributable to pioglitazone (children with NS [1]; Patient 1, 7-month PIO treatment, 15 then 30 mg QD): No side effects attributable to pioglitazone were noted
- side effects attributable to pioglitazone (children with NS [1]; Patient 2, 4-month treatment, 15 mg QD): no side effects attributable to pioglitazone noted
- side effects attributable to pioglitazone (children with NS [1]; Patient 3, 19-month course): No side effects attributable to pioglitazone were noted
- side effects attributable to pioglitazone (children with NS [1]; Patient 4, 3 weeks of treatment, 7.5 mg QD): no side effects attributable to pioglitazone were noted
- side effects attributable to pioglitazone (children with NS [1]; Patient 5, 2.5 years, 45 mg QD): No side effects attributable to pioglitazone were noted
- side effects attributable to pioglitazone (children with NS [1]; Patient 6, 5-year course, 30 mg QD): No side effects attributable to pioglitazone were noted
- side effects (reason for stopping pioglitazone) (children with NS [1]; Patient 7, 6 months, 15 then 30 mg QD): concerns of possible association with new-onset bruising, which resolved
- side effects attributable to pioglitazone (children with NS [1]; Patient 8, 30-week course, 30 mg QD): No side effects attributable to pioglitazone were noted
- reductions in hospitalizations for IV albumin infusions and diuresis (children with NS [1]; Responders): 100%
- children with worsening edema after pioglitazone introduction (children with NS [1]; all 8 patients): 0%
- hospitalizations for IV albumin infusions to manage NS-related edema (children with NS [1]; all 8 patients, 5-7 months post-pioglitazone, 13 in the 5-7 months pre-pioglitazone): 1
- adverse events attributable to pioglitazone (children with NS [1]; all patients, collective 136 months of drug exposure): no patients experienced any adverse events attributable to pioglitazone
- pioglitazone-related hypoglycemia (children with NS [1]; all patients, observation period): no children with NS were noted to have pioglitazone-related hypoglycemia
- mean TIS (children with NS [2]; Non-responders, before and after pioglitazone treatment): approximately 3.5
- Post-PIO TIS (0-1 mo) (children with NS [2]; [3]): 11
- Post-PIO TIS (5-7 mo) (children with NS [2]; [3]): 5
- % TIS reduction (0-1 mo) (children with NS [2]; [4]): 15% and 15.4%
- % TIS reduction (5-7 mo) (children with NS [2]; [4]): 62% and 61.5%
- Post-PIO TIS (0-1 mo) (children with NS [2]; [5]): 12
- Post-PIO TIS (5-7 mo) (children with NS [2]; [5]): 8
- % TIS reduction (0-1 mo) (children with NS [2]; [6]): 0%
- % TIS reduction (5-7 mo) (children with NS [2]; [6]): 33% and 33.3%
- Post-PIO TIS (0-1 mo) (children with NS [2]; [7]): 2
- Post-PIO TIS (5-7 mo) (children with NS [2]; [7]): 1
- % TIS reduction (0-1 mo) (children with NS [2]; [8]): −∞
- % TIS reduction (5-7 mo) (children with NS [2]; [8]): −∞
- TIS increase (children with NS [2]; Patient 4 (Non-responder), over the next 1 month): 133%
- Post-PIO TIS (0-1 mo) (children with NS [2]; Patient 4 (Non-responder), pre-PIO 3): 7
- % TIS reduction (0-1 mo) (children with NS [2]; Patient 4 (Non-responder), vs 0-1 mo pre-PIO): −133%
- Post-PIO TIS (0-1 mo) (children with NS [2]; [9]): 4
- Post-PIO TIS (5-7 mo) (children with NS [2]; [9]): 4
- % TIS reduction (0-1 mo) (children with NS [2]; [10]): 0.00%
- % TIS reduction (5-7 mo) (children with NS [2]; [10]): 0.00%
- Post-PIO TIS (0-1 mo) (children with NS [2]; [11]): 2
- Post-PIO TIS (5-7 mo) (children with NS [2]; [11]): 2
- % TIS reduction (5-7 mo) (children with NS [2]; Patient 6 (Responder), vs 0-1 mo pre-PIO): 0.00%
- Post-PIO TIS (0-1 mo) (children with NS [2]; [12]): 3
- Post-PIO TIS (5-7 mo) (children with NS [2]; [12]): 3
- % TIS reduction (0-1 mo) (children with NS [2]; [13]): 0.00%
- % TIS reduction (5-7 mo) (children with NS [2]; [13]): 0.00%
- Post-PIO TIS (0-1 mo) (children with NS [2]; [14]): 3
- Post-PIO TIS (5-7 mo) (children with NS [2]; [14]): 2
- % TIS reduction (0-1 mo) (children with NS [2]; [15]): 25%
- % TIS reduction (5-7 mo) (children with NS [2]; [15]): 50%
- decrease in overall exposure to immunosuppressive medications (mean TIS) (children with NS [2]; Responders, mean TIS 6.2 at 0-1 month pre- to 3.6 at 5-7 months post-pioglitazone): 42%
- % TIS reduction (0-1 mo), Mean (SEM) (children with NS [2]; mean of 5 Responders): −∞
- % TIS reduction (5-7 mo), Mean (SEM) (children with NS [2]; mean of 5 Responders): −∞
- Post-PIO TIS (0-1 mo), Mean (SEM) (children with NS [2]; [16]): 6.00
- Post-PIO TIS (5-7 mo), Mean (SEM) (children with NS [2]; [16]): 3.6
- % TIS reduction (0-1 mo), Mean (SEM) (children with NS [2]; mean of Non-responders): −44.4%
- Post-PIO TIS (5-7 mo), Mean (SEM) (children with NS [2]; mean of Non-responders (Patient 4 ESRD)): 3.50
- % TIS reduction (5-7 mo), Mean (SEM) (children with NS [2]; mean of Non-responders (Patient 4 NA)): 0.00%
- Post-PIO TIS (0-1 mo), Mean (SEM) (children with NS [2]; mean of Non-responders, pre-PIO 3.33): 4.67
